Test in all cases: NCI tumour cell line growth inhibition, 48 h
Assay [1] has as its system CCRF-CEM leukemia.
For assay [2], the system named is UO-31 renal.
The subject of assay [3] is SF-268 CNS.
In assay [4] the test system is MDA-MB-435.
In assay [5] the test system is LOX IMVI melanoma.
Assay [6] has as its system UACC-62 melanoma.
Assay [7] deals with ACHN renal.
The test system of assay [8] is KM12 colon.
In assay [9] the test system is SK-MEL-5 melanoma.
Assay [10] concerns SK-MEL-28 melanoma.

Values joined by “and” are separate entries in the source; they are usually repeats but may differ in a detail not shown here. Identical values can stand only once.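 How tested: cells in 96-well plates exposed to compound for 48 hours at five concentrations. Abbreviation: GI50, concentration required for 50% inhibition of growth. TGI: concentration producing complete growth inhibition.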

Consider `COc1cccc(N=N/C(=N\NC(=O)c2cc(Br)ccc2O)c2ccc(N(CCC#N)CCC#N)cc2OC)c1`, for which the GI50 in assay [1] is 53.7 mg/L; in [2], 68 mg/L; in assay [3], 21.9 mg/L; in assay [4] it was 67.8 mg/L; in assay [5], 15 mg/L; in assay [6], 60.5 mg/L. Also, the GI50 was 56.8 mg/L in assay [7], 26.9 mg/L in assay [8], 35.1 mg/L in [9] and 62.7 mg/L in assay [10]. For the same molecule, the TGI in assay [1] was over 150 mg/L; in assay [2] it was over 150 mg/L; in assay [3], 122 mg/L; in assay [4], over 150 mg/L; in assay [5] it was 15 mg/L; in [6], over 150 mg/L. Moreover, the TGI was over 150 mg/L in [7], 83.4 mg/L in assay [8], 97.1 mg/L in [9] and over 150 mg/L in assay [10].

Take `COC(=O)[C@]12CC[C@@H](C)[C@H](C)[C@@H]1C1=CC[C@@H]3[C@@]4(C)C(C=O)=C[C@@](C)(COS(C)(=O)=O)C4[C@H](O)C[C@@]3(C)[C@]1(C)CC2` (stereo not given in full): the GI50 in assay [1] was 0.782 µM; in assay [2] it was 1.04 µM; in [3], 2 µM; in [4] it was 1.67 µM; in assay [5], 1.47 µM; in [6], 1.66 µM. The GI50 in assay [7] was 1.18 µM; in assay [8] it was 1.83 µM; in [9], 1.7 µM; in [10], 2.15 µM. Moreover, the TGI was 3.22 µM in assay [1]; 2.35 µM in [2]; 4.82 µM in [3]; 3.57 µM in [4]; 2.81 µM in assay [5]; 3.96 µM in assay [6]. Also, the TGI in [7] was 2.56 µM; in assay [8] it was 3.96 µM; in [9], 3.26 µM; in assay [10] it was 5.05 µM.

Regarding `COc1ccc2c(c1)c(-c1ccc(-c3cn(C)c4ccc(OC)cc34)[nH]1)cn2C`, the GI50 is 2.03 µM in assay [1]; 1.42 µM in assay [2]; 3.45 µM in [3]; 4.92 µM in assay [4]; 2.03 µM in assay [5]; 2.14 µM in assay [6]. Besides, the GI50 in assay [7] was 1.91 µM; in assay [8], 2.75 µM; in assay [9], 4.2 µM; in assay [10] it was 3.18 µM. Further, the TGI in assay [1] stood at 5.8 µM; in assay [2], 2.83 µM; in assay [3] it was 18.1 µM; in [4], 20.6 µM; in assay [5], 4.39 µM; in assay [6] it was 6.55 µM. In addition, the TGI in [7] came out at 3.54 µM; in [8], 9.59 µM; in assay [9], 14.4 µM; in [10] it was 12.4 µM.

For `COc1cc2c3c(n(CCCBr)c(=O)c2cc1OC)-c1ccc(F)cc1C3=O`, the GI50 in [1] is 1.99 µM; in [2], 5.57 µM; in assay [3], 10.4 µM; in assay [4], 43.9 µM; in [5], 5.48 µM; in assay [6], 3.93 µM. In addition, the GI50 in assay [7] is 4.47 µM; in assay [8], 35.3 µM; in assay [9], 10.9 µM; in assay [10], 39.8 µM. The TGI was 8.94 µM in assay [1]; 60.4 µM in assay [2]; over 100 µM in assay [3]; over 100 µM in assay [4]; 30.1 µM in assay [5]; 24.5 µM in assay [6]. Also, the TGI is 36.3 µM in assay [7], over 100 µM in assay [8], 24.1 µM in assay [9] and over 100 µM in [10].

For the molecule `NS(=O)(=O)c1ccc(-n2ncc3c(Nc4ccccc4)ncnc32)cc1`, the GI50 is 17.7 µM in assay [1]; 23.9 µM in [2]; 43.1 µM in assay [3]; 46.2 µM in [4]; 14.9 µM in assay [5]; 42.8 µM in assay [6]. Moreover, the GI50 is 38.5 µM in [7], 9.63 µM in assay [8], 24.4 µM in assay [9] and 31.6 µM in assay [10]. Moreover, the TGI in [1] is 92.5 µM; in assay [2], over 100 µM; in assay [3], over 100 µM; in [4] it was over 100 µM; in assay [5] it was 70 µM; in assay [6], over 100 µM. Moreover, the TGI in assay [7] is over 100 µM; in assay [8], 46.7 µM; in assay [9] it was over 100 µM; in [10], over 100 µM.

In the case of `O=C1c2ccccc2-c2c1c1ccc([N+](=O)[O-])cc1c(=O)n2CCCNCCO`, the GI50 in assay [1] was 0.023 µM; in [2] it was 0.0989 µM; in assay [3], 0.148 µM; in assay [4], 0.95 µM; in assay [5] it was 0.0665 µM; in [6] it was 0.372 µM. Moreover, the GI50 was 0.0496 µM in assay [7], 0.297 µM in assay [8], 0.0875 µM in assay [9] and 1.27 µM in assay [10]. For the same molecule, the TGI in assay [1] stood at 1.09 µM; in assay [2] it was 1.06 µM; in assay [3], 1.99 µM; in assay [4], 2.67 µM; in assay [5], 0.348 µM; in assay [6], 1.85 µM. Besides, the TGI in assay [7] is 0.48 µM; in assay [8] it was 1.76 µM; in assay [9], 0.349 µM; in assay [10], 2.62 µM.

With `CN1C[C@@H]2Cn3c(c(C4=C(c5cn(C)c6ccccc56)C(=O)NC4=O)c4ccccc43)C[C@H]2C1`, the GI50 in assay [1] was 2.13 µM and 5.69 µM; in [2], 2.01 µM and 2.98 µM; in assay [3], 4.8 µM and 4.93 µM; in assay [4], 3.43 µM and 3.16 µM; in [5], 4.16 µM and 3.96 µM; in assay [6], 3.89 µM and 3.61 µM. Also, the GI50 was 4.16 µM and 3.51 µM in assay [7]; 4.49 µM and 3.67 µM in assay [8]; 4.17 µM and 3.68 µM in assay [9]; 4.34 µM and 4.35 µM in [10]. Besides, the TGI in assay [1] was 11.7 µM and 17.6 µM; in [2] it was 5.38 µM and 6.66 µM; in assay [3], 9.46 µM and 9.97 µM; in assay [4] it was 7.09 µM; in assay [5], 7.9 µM and 7.86 µM; in assay [6], 7.64 µM and 7.19 µM. Moreover, the TGI in assay [7] is 12.6 µM and 8.98 µM; in assay [8], 9.19 µM and 7.87 µM; in assay [9], 8.01 µM and 7.28 µM; in [10] it was 8.62 µM and 8.47 µM.

Values taken from PubChem BioAssay (NCI).
